# Assay: gradient 5% acetonitrile 3 min, to 50% in 2 min, to 85% in 15 min, held 3 min, 100 µL/min
# Settings: column: Zorbax Extend-C18 2.1 x 50 mm; eluents: water / acetonitrile, 0.1% formic acid
# In short: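 The system's dead and dwell volumes were 40 μL and 900 μL, with a Zorbax Extend-C18 column (2.1 × 50 mm, 1.8 μm) run at 100 μL/min in water and acetonitrile containing 0.1% formic acid each. Pure standards were analyzed in mixtures of ~100 molecules by HPLC–quadrupole time-of-flight mass spectrometry in positive and negative ionization mode. Retention time was assigned from computationally picked, manually inspected adduct peaks.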
row,Structure (SMILES),RP-LC retention time
1,Cc1ccc(-c2noc(Cn3c(=O)n(Cc4ccco4)c(=O)c4ccccc43)n2)cc1,1110 s
2,O=C(CN1C(=O)c2ccccc2C1=O)N1CCc2ccccc2C1,755 s
3,CCOC(=O)c1cnc2c(-c3cccc(Cl)c3)c(C)nn2c1N,1180 s
4,O=C(Cn1c(=O)cc(-c2nc(C3CC3)no2)c2ccccc21)NC1CCCC1,869 s
5,Cc1cc2nnc(SCC(=O)Nc3nc(-c4ccccc4)cs3)n2c2ccccc12,964 s
6,O=C(Cn1cnc(-c2noc(-c3ccc(F)cc3)n2)c1)NCc1ccc(F)cc1,857 s
7,Cc1ccc2nc(C)cc(C(=O)NC3CCCC3)c2c1,610 s
8,Cc1cc(NC(=O)c2cc(=O)c3ccccc3o2)n(-c2nc(-c3ccc(F)cc3)cs2)n1,1240 s
9,Cc1c(Cl)cccc1N1C(=O)CN(S(C)(=O)=O)CC1(C)C(=O)NCc1ccccc1 (configuration not stated),850 s
10,CC(=O)N1CCN(c2nc(-c3ccccc3)c3cc(Br)ccc3n2)CC1,1010 s
11,COc1ccc(S(=O)(=O)NCCc2cn(C)c3ncccc23)cc1,696 s
12,Cc1nc2cc(-c3noc(-c4ccc(C#N)cc4F)n3)ccc2o1,1000 s
13,CC(C)NC(=O)C1CCCN(c2nc3ncn(CC(=O)Nc4ccc(C(C)C)cc4)c(=O)c3s2)C1 (configuration not stated),785 s
14,O=C(NCc1ccccc1)N1CCN(Cc2nc3cc(Cl)ccc3o2)CC1,717 s
15,CCc1nc2ccccc2c(=O)n1Cc1noc(-c2ccc(C#N)cc2)n1,919 s
16,O=C(NC12CC3CC(CC(C3)C1)C2)C1CCN(S(=O)(=O)c2cccs2)CC1,1070 s
17,CCOc1ccccc1NC(=O)N(C)CCc1noc(COc2ccccc2)n1,977 s
18,Fc1ccccc1N1CCN(c2ncnc3sc4c(c23)CCC4)CC1,1150 s
19,COCCN(C)Cc1ccc(CC2CCN(C(=O)C3(c4ccc(OC)cc4)CC3)CC2)cc1,691 s
20,CCOc1cccc(C2CC(c3cccc(OC)c3)=NC3(CCN(C(C)C)CC3)N2)c1O (configuration not stated),618 s
21,CCCn1cnnc1C1CCCCN1Cc1ccc(Br)o1 (configuration not stated),599 s
22,O=S(=O)(c1cccn2c(SCc3ccc(Cl)cc3)nnc12)N1CCCC1,848 s
23,CCc1ccc2ncc(C#N)c(N3CCC(C(=O)NCc4ccc(F)cc4)CC3)c2c1,710 s

row,Structure (SMILES),RP-LC retention time
1,COc1cccc(CC(=O)N2CCC(c3cc(N)on3)CC2)c1,663 s
2,CC(C)CN(Cc1ccc(F)cc1)Cc1cc(=O)n2cc(Cl)ccc2n1,706 s
3,O=C(Cc1ccsc1)N1CCC(c2nncn2-c2ccccc2)CC1,689 s
4,CCc1nc2c(c(=O)n1CC(=O)Nc1cc(C)ccc1C)CN(Cc1ccccc1)CC2,679 s
5,Cc1nc(C(=O)Nc2ccccc2)c(C)o1,809 s
6,CN1C(=O)c2cccn2CC1CNC(=O)c1ccnn1C (configuration not stated),591 s
7,COc1ccc(-c2cn3cccnc3n2)cc1NC(=O)c1cc(Br)ccc1Cl,768 s
8,O=S(=O)(NCC#CCN1CCc2ccccc2C1)c1cccs1,558 s
9,Cc1ccc(N2CCC(NC(=O)CC3CCCC3)C2=O)cc1 (configuration not stated),839 s
10,COc1cccc(NC(=O)N2CC(c3nc(Cc4ccccc4)no3)C2)c1OC,831 s
11,O=S(=O)(c1ccc2c(c1)CCCC2)N1CCN(c2ccc(-c3ccco3)nn2)CC1,903 s
12,CCOc1ccc(C(=O)N2CCC3(C2)C(=O)N(C)c2ccccc23)cc1 (configuration not stated),802 s
13,Cc1cnc(C2CC2)n1CCNS(=O)(=O)c1ccccc1C(F)(F)F,569 s
14,COc1cc(NC(=O)Cn2c(N3CCc4ccccc4C3)nc(C)cc2=O)cc(OC)c1OC,721 s
15,O=C(Nc1cccc(Cl)c1)Nc1cccc(-c2ccc3nncn3n2)c1,734 s
16,CCn1c(=O)c(C(=O)N2CCN(c3ccccn3)CC2)nc2ccccc21,588 s
17,Cc1cc(C)n(CC(C)C(=O)Nc2ccc(Br)cc2)n1 (configuration not stated),800 s
18,COc1ccc(Cl)cc1NC(=O)N1CCC(n2cnc3ccc(F)cc3c2=O)CC1,871 s
19,CC(=O)Nc1onc(C)c1-c1ccc(C)c(S(=O)(=O)NCCc2ccc(S(N)(=O)=O)cc2)c1,663 s
20,Cc1ccc(CNC(=O)C2CCCN(c3nnc4c(Cl)cccn34)C2)o1 (configuration not stated),704 s
21,CCN(CC)CCNC(=O)CCc1c(C)nc2c(c1C)c(=O)n(C)c(=O)n2C,602 s
22,CCCN1C(=O)COc2ccc(-c3noc(-c4ccc(CS(=O)(=O)c5ccccc5)cc4)n3)cc21,1130 s
23,Cc1ccc(CNC(=O)c2ccc3ncnc(N4CCCC4)c3c2)o1,617 s

row,Structure (SMILES),RP-LC retention time
1,CCn1cc(-c2nc(CC(=O)Nc3ccc(F)cc3)cs2)c2cccnc21,894 s
2,COc1ccc(OC)c(NC(=O)N2CCC(OC3CCN(S(C)(=O)=O)CC3)CC2)c1,751 s
3,O=C(CN1CCCC1=O)NCc1ccccc1C(F)(F)F,680 s
4,CC(C)CN1C(=O)c2cccn2CC1C(=O)NCc1ccco1 (configuration not stated),733 s
5,CCCN1C(=O)c2cccnc2Sc2cc(C(=O)NC(C)C)ccc21,753 s
6,Cc1nc(-c2noc(-c3ccncc3)n2)cn1CC(=O)Nc1cccc(F)c1,833 s
7,COc1ccc(C(=O)Nc2ccc3c(c2)Sc2ncccc2C(=O)N3C(C)C)cc1F,894 s
8,COC[C@@H]1CN(S(=O)(=O)c2cn(C)cn2)C[C@H]1c1ccccn1,567 s
9,Cc1cccc(N2C(=O)c3cccnc3C2CC(=O)N2CCN(c3ccccn3)CC2)c1 (configuration not stated),562 s
10,COc1ccccc1N1CCN(c2cc(SCC(=O)NCc3ccc(SC)cc3)ncn2)CC1,929 s
11,CCc1ccc(-n2nc(CO)c(C(=O)NC3CCCC3)n2)cc1,1120 s
12,COc1cccc(C(O)CN2CCN(c3cccc(C)c3)CC2)c1 (configuration not stated),663 s
13,O=C([C@@H]1C[C@H](Oc2ccccc2)CN1C(=O)CCCc1c[nH]c2ccccc12)N1CCCC1,865 s
14,CC(C)CCC(=O)N1CCN(c2nc(CN3CCC(C)CC3)cs2)CC1,671 s
15,Cc1ccc(-c2nnc(-c3cccc(S(=O)(=O)NCc4cccnc4)c3)o2)cc1,696 s
16,O=C(Nc1cccnc1)c1cccc(S(=O)(=O)N2CCCCCC2)c1,631 s
17,CC(C)N1CCn2cc(S(=O)(=O)Nc3ccc(F)cc3Cl)cc2C1=O,778 s
18,O=C(Cc1cccs1)N1CCc2c([nH]c3ccccc23)C1c1ccccc1 (configuration not stated),1130 s
19,CCNC(=O)C1CCCN(C(=O)c2cc(C)cc(C)c2)C1 (configuration not stated),718 s
20,CC(C)(C)c1csc(-c2csc(S(=O)(=O)NCc3ccc(Br)cc3)c2)n1,1300 s
21,COc1ccc2[nH]cc(CN3CCC([C@H]4[C@@H](OC)C(=O)N4C(C)C)CC3)c2c1,623 s

# — the METLIN SMRT retention time set (Domingo-Almenara et al. 2019)
